{
  "source": "patent US20250215053A1",
  "about": "“LYSINE RICH CELL-PENETRATING PEPTIDES” (OXFORD UNIVERSITY INNOVATION LIMITED, priority 2022, published 2025)",
  "origin": "cited, not measured here",
  "test_system": "dystrophin",
  "settings": "in vivo",
  "data": [
    {"substance": "eteplirsen", "values": [
      {"measurement": "dystrophin restoration", "value": "approximately 1 % of normal dystrophin levels"}
    ]}
  ]
}
